Structures are written as SMILES. Bridge positions count the residues as written; N and C are the ends. Square brackets hold non-standard residues; d marks the D form. Peptide text beside a SMILES is read from it. * marks the point of attachment. ξ: configuration not given here. Bip = N[C@@H](Cc1ccc(-c2ccccc2)cc1)C(=O)O; Phe(3-Me) = Cc1cccc(C[C@H](N)C(=O)O)c1; ξBip = NC(Cc1ccc(-c2ccccc2)cc1)C(=O)O; 4Pal = N[C@@H](Cc1ccncc1)C(=O)O; Cha = N[C@@H](CC1CCCCC1)C(=O)O; Cit = NC(=O)NCCC[C@H](N)C(=O)O; Carboxymethyl = O=C(O)C*; Orn = NCCC[C@H](N)C(=O)O; Aun = NCCCCCCCCCCC(=O)O; Dab = NCC[C@H](N)C(=O)O; Dap = NC[C@H](N)C(=O)O; ξD = NC(CC(=O)O)C(=O)O; AEEA = NCCOCCOCC(=O)O

The assay deals with T1, PD-1/PD-L1 interaction (PE-labeled human PD-L1-Ig binding to Jurkat cell line over-expressing human PD-1) (Homo sapiens, UniProt Q15116).
T1 construct: expressed in transfected cells; host or cells: Jurkat
T1 sequence (Q15116 25-288): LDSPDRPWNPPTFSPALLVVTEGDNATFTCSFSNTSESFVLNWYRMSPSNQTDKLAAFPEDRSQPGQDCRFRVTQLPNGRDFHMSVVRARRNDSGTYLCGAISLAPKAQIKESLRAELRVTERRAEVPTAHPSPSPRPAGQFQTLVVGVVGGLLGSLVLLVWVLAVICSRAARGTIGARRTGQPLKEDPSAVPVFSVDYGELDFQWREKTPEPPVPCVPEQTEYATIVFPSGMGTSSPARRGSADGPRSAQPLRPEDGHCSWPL
Nature of the assay: Jurkat-PD-1 Cell Binding High-Content Screening Assay (CBA). The note with it: Jurkat cell line over-expressing human PD-1; PE-labeled PD-L1-Ig 20 nM final; read-out: Jurkat hPD1-PDL1 IC50. It counts as cell-based. Summed up: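 Binding of fluorescent PD-L1-Ig (20 nM final) to Jurkat-PD-1 cells was measured by automated imaging after 1 h, following a 2 h compound pre-treatment at 37° C.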
Regarding `Cc1cccc(C[C@@H]2NC(=O)[C@H](CC(=O)O)NC(=O)[C@H](Cc3ccncc3)NC(=O)[C@H](Cc3ccc(OCC(=O)O)cc3)NC(=O)CSC[C@@H](C(=O)NCCOCCOCC(=O)N[C@@H](CN)C(=O)NCCCCCCCCCCC(=O)O)NC(=O)[C@H]([C@@H](C)O)NC(=O)[C@H](C(C)C)NC(=O)[C@H](CC3CCCCC3)NC(=O)[C@H](CCN)NC(=O)[C@@H](CC(C)C)NC(=O)[C@H](CCCN)NC(=O)[C@H](C(C)C)NC(=O)[C@H](Cc3ccc(-c4ccccc4)cc3)NC(=O)[C@H](C(C)C)NC2=O)c1` [Compound 1169] ({CH2CO}-Y(Carboxymethyl)[4Pal]D[Phe(3-Me)]V[Bip]V[Orn][dL][Dab][Cha]VTC[AEEA][Dap][Aun]-OH; thioether N-14), the 50% inhibitory concentration (IC50) (usually the concentration needed to halve the response being measured) was found to be 0.0287 µM.

Take `Cc1cccc(C[C@@H]2NC(=O)[C@H](CC(=O)O)NC(=O)[C@H](Cc3ccncc3)NC(=O)[C@H](Cc3ccc(OCC(=O)O)cc3)NC(=O)CSC[C@@H](C(=O)NCCOCCOCC(=O)N[C@@H](CCN)C(=O)NCCCCCCCCCCC(=O)O)NC(=O)[C@H]([C@@H](C)O)NC(=O)[C@H](C(C)C)NC(=O)[C@H](CC3CCCCC3)NC(=O)[C@H](CCN)NC(=O)[C@@H](CC(C)C)NC(=O)[C@H](CCCN)NC(=O)[C@H](C(C)C)NC(=O)[C@H](Cc3ccc(-c4ccccc4)cc3)NC(=O)[C@H](C(C)C)NC2=O)c1` [Compound 1170] ({CH2CO}-Y(Carboxymethyl)[4Pal]D[Phe(3-Me)]V[Bip]V[Orn][dL][Dab][Cha]VTC[AEEA][Dab][Aun]-OH; thioether N-14): the half-maximal inhibitory concentration (IC50) amounted to 0.0379 µM.

As for `Cc1cccc(C[C@@H]2NC(=O)[C@H](CC(=O)O)NC(=O)[C@H](Cc3ccncc3)NC(=O)[C@H](Cc3ccc(OCC(=O)O)cc3)NC(=O)CSC[C@@H](C(=O)NCCOCCOCC(=O)N[C@@H](CCCN)C(=O)NCCCCCCCCCCC(=O)O)NC(=O)[C@H]([C@@H](C)O)NC(=O)[C@H](C(C)C)NC(=O)[C@H](CC3CCCCC3)NC(=O)[C@H](CCN)NC(=O)[C@@H](CC(C)C)NC(=O)[C@H](CCCN)NC(=O)[C@H](C(C)C)NC(=O)[C@H](Cc3ccc(-c4ccccc4)cc3)NC(=O)[C@H](C(C)C)NC2=O)c1` [Compound 1171] ({CH2CO}-Y(Carboxymethyl)[4Pal]D[Phe(3-Me)]V[Bip]V[Orn][dL][Dab][Cha]VTC[AEEA][Orn][Aun]-OH; thioether N-14), the IC50 worked out at 0.028 µM.

In the case of `Cc1cccc(C[C@@H]2NC(=O)[C@H](CC(=O)O)NC(=O)[C@H](Cc3ccncc3)NC(=O)[C@H](Cc3ccc(OCC(=O)O)cc3)NC(=O)CSC[C@@H](C(=O)NCCOCCOCC(=O)N[C@@H](CCCCN)C(=O)NCCCCCCCCCCC(=O)O)NC(=O)[C@H]([C@@H](C)O)NC(=O)[C@H](C(C)C)NC(=O)[C@H](CC3CCCCC3)NC(=O)[C@H](CCN)NC(=O)[C@@H](CC(C)C)NC(=O)[C@H](CCCN)NC(=O)[C@H](C(C)C)NC(=O)[C@H](Cc3ccc(-c4ccccc4)cc3)NC(=O)[C@H](C(C)C)NC2=O)c1` [Compound 1172] ({CH2CO}-Y(Carboxymethyl)[4Pal]D[Phe(3-Me)]V[Bip]V[Orn][dL][Dab][Cha]VTC[AEEA]K[Aun]-OH; thioether N-14), the concentration for half-maximal inhibition (IC50) was found to be 0.025 µM.

As for `Cc1cccc(C[C@@H]2NC(=O)C(CC(=O)O)NC(=O)[C@H](Cc3ccc(OCC(=O)O)cc3)NC(=O)[C@H](CN)NC(=O)CSC[C@@H](C(=O)N[C@@H](CCCNC(=N)N)C(=O)NCCCCCCCCCCC(=O)O)NC(=O)[C@H]([C@@H](C)O)NC(=O)[C@H](C(C)C)NC(=O)[C@H](CC3CCCCC3)NC(=O)[C@H](CCN)NC(=O)[C@@H](CC(C)C)NC(=O)[C@H](CCCN)NC(=O)[C@H](CCCNC(N)=O)NC(=O)C(Cc3ccc(-c4ccccc4)cc3)NC(=O)[C@H](C(C)C)NC2=O)c1` (stereo partly drawn) [Compound 1174] ({CH2CO}-[Dap]Y(Carboxymethyl)[ξD][Phe(3-Me)]V[ξBip][Cit][Orn][dL][Dab][Cha]VTCR[Aun]-OH; thioether N-14), the 50% inhibitory concentration (IC50) is 0.0166 µM.

For the molecule `Cc1cccc(C[C@@H]2NC(=O)C(CC(=O)O)NC(=O)[C@H](Cc3ccc(OCC(=O)O)cc3)NC(=O)[C@H](CN)NC(=O)CSC[C@@H](C(=O)N[C@@H](Cc3cnc[nH]3)C(=O)NCCCCCCCCCCC(=O)O)NC(=O)[C@H]([C@@H](C)O)NC(=O)[C@H](C(C)C)NC(=O)[C@H](CC3CCCCC3)NC(=O)[C@H](CCN)NC(=O)[C@@H](CC(C)C)NC(=O)[C@H](CCCN)NC(=O)[C@H](CCCNC(N)=O)NC(=O)C(Cc3ccc(-c4ccccc4)cc3)NC(=O)[C@H](C(C)C)NC2=O)c1` (stereo partly drawn) [Compound 1175] ({CH2CO}-[Dap]Y(Carboxymethyl)[ξD][Phe(3-Me)]V[ξBip][Cit][Orn][dL][Dab][Cha]VTCH[Aun]-OH; thioether N-14), the half-maximal inhibitory concentration (IC50) came out at 0.0199 µM.

In the case of `Cc1cccc(C[C@@H]2NC(=O)C(CC(=O)O)NC(=O)[C@H](Cc3ccc(OCC(=O)O)cc3)NC(=O)[C@H](CN)NC(=O)CSC[C@@H](C(=O)NCCOCCOCC(=O)N[C@@H](CN)C(=O)NCCCCCCCCCCC(=O)O)NC(=O)[C@H]([C@@H](C)O)NC(=O)[C@H](C(C)C)NC(=O)[C@H](CC3CCCCC3)NC(=O)[C@H](CCN)NC(=O)[C@@H](CC(C)C)NC(=O)[C@H](CCCN)NC(=O)[C@H](CCCNC(N)=O)NC(=O)C(Cc3ccc(-c4ccccc4)cc3)NC(=O)[C@H](C(C)C)NC2=O)c1` (stereo partly drawn) [Compound 1176] ({CH2CO}-[Dap]Y(Carboxymethyl)[ξD][Phe(3-Me)]V[ξBip][Cit][Orn][dL][Dab][Cha]VTC[AEEA][Dap][Aun]-OH; thioether N-14), the 50% inhibitory concentration (IC50) stood at 0.0072 µM.

With `Cc1cccc(C[C@@H]2NC(=O)C(CC(=O)O)NC(=O)[C@H](Cc3ccc(OCC(=O)O)cc3)NC(=O)[C@H](CN)NC(=O)CSC[C@@H](C(=O)NCCOCCOCC(=O)N[C@@H](CCN)C(=O)NCCCCCCCCCCC(=O)O)NC(=O)[C@H]([C@@H](C)O)NC(=O)[C@H](C(C)C)NC(=O)[C@H](CC3CCCCC3)NC(=O)[C@H](CCN)NC(=O)[C@@H](CC(C)C)NC(=O)[C@H](CCCN)NC(=O)[C@H](CCCNC(N)=O)NC(=O)C(Cc3ccc(-c4ccccc4)cc3)NC(=O)[C@H](C(C)C)NC2=O)c1` (stereo partly drawn) [Compound 1177] ({CH2CO}-[Dap]Y(Carboxymethyl)[ξD][Phe(3-Me)]V[ξBip][Cit][Orn][dL][Dab][Cha]VTC[AEEA][Dab][Aun]-OH; thioether N-14), the half-maximal inhibitory concentration (IC50) stood at 0.0083 µM.

As for `Cc1cccc(C[C@@H]2NC(=O)C(CC(=O)O)NC(=O)[C@H](Cc3ccc(OCC(=O)O)cc3)NC(=O)[C@H](CN)NC(=O)CSC[C@@H](C(=O)NCCOCCOCC(=O)N[C@@H](CCCN)C(=O)NCCCCCCCCCCC(=O)O)NC(=O)[C@H]([C@@H](C)O)NC(=O)[C@H](C(C)C)NC(=O)[C@H](CC3CCCCC3)NC(=O)[C@H](CCN)NC(=O)[C@@H](CC(C)C)NC(=O)[C@H](CCCN)NC(=O)[C@H](CCCNC(N)=O)NC(=O)C(Cc3ccc(-c4ccccc4)cc3)NC(=O)[C@H](C(C)C)NC2=O)c1` (stereo partly drawn) [Compound 1178] ({CH2CO}-[Dap]Y(Carboxymethyl)[ξD][Phe(3-Me)]V[ξBip][Cit][Orn][dL][Dab][Cha]VTC[AEEA][Orn][Aun]-OH; thioether N-14), the IC50 came out at 0.0097 µM.

With `Cc1cccc(C[C@@H]2NC(=O)C(CC(=O)O)NC(=O)[C@H](Cc3ccc(OCC(=O)O)cc3)NC(=O)[C@H](CN)NC(=O)CSC[C@@H](C(=O)NCCOCCOCC(=O)N[C@@H](CCCCN)C(=O)NCCCCCCCCCCC(=O)O)NC(=O)[C@H]([C@@H](C)O)NC(=O)[C@H](C(C)C)NC(=O)[C@H](CC3CCCCC3)NC(=O)[C@H](CCN)NC(=O)[C@@H](CC(C)C)NC(=O)[C@H](CCCN)NC(=O)[C@H](CCCNC(N)=O)NC(=O)C(Cc3ccc(-c4ccccc4)cc3)NC(=O)[C@H](C(C)C)NC2=O)c1` (stereo partly drawn) [Compound 1179] ({CH2CO}-[Dap]Y(Carboxymethyl)[ξD][Phe(3-Me)]V[ξBip][Cit][Orn][dL][Dab][Cha]VTC[AEEA]K[Aun]-OH; thioether N-14), the IC50 was 0.0103 µM.

`Cc1cccc(C[C@@H]2NC(=O)C(CC(=O)O)NC(=O)[C@H](Cc3ccc(OCC(=O)O)cc3)NC(=O)[C@H](CN)NC(=O)CSC[C@@H](C(=O)NCCOCCOCC(=O)N[C@@H](CCCNC(=N)N)C(=O)NCCCCCCCCCCC(=O)O)NC(=O)[C@H]([C@@H](C)O)NC(=O)[C@H](C(C)C)NC(=O)[C@H](CC3CCCCC3)NC(=O)[C@H](CCN)NC(=O)[C@@H](CC(C)C)NC(=O)[C@H](CCCN)NC(=O)[C@H](CCCNC(N)=O)NC(=O)C(Cc3ccc(-c4ccccc4)cc3)NC(=O)[C@H](C(C)C)NC2=O)c1` (stereo partly drawn) [Compound 1180] ({CH2CO}-[Dap]Y(Carboxymethyl)[ξD][Phe(3-Me)]V[ξBip][Cit][Orn][dL][Dab][Cha]VTC[AEEA]R[Aun]-OH; thioether N-14): the IC50 was 0.0184 µM.

For the molecule `Cc1cccc(C[C@@H]2NC(=O)C(CC(=O)O)NC(=O)[C@H](Cc3ccc(OCC(=O)O)cc3)NC(=O)[C@H](CN)NC(=O)CSC[C@@H](C(=O)N[C@@H](CN)C(=O)NCCCCCCCCCCC(=O)O)NC(=O)[C@H]([C@@H](C)O)NC(=O)[C@H](C(C)C)NC(=O)[C@H](CC3CCCCC3)NC(=O)[C@H](CCN)NC(=O)[C@@H](CC(C)C)NC(=O)[C@H](CCCN)NC(=O)[C@H](CCCNC(N)=O)NC(=O)C(Cc3ccc(-c4ccccc4)cc3)NC(=O)[C@H](C(C)C)NC2=O)c1` (stereo partly drawn) [Compound 1181] ({CH2CO}-[Dap]Y(Carboxymethyl)[ξD][Phe(3-Me)]V[ξBip][Cit][Orn][dL][Dab][Cha]VTC[Dap][Aun]-OH; thioether N-14), the 50% inhibitory concentration (IC50) was 0.0117 µM.

For the molecule `CC[C@H](C)[C@@H]1NC(=O)[C@H](Cc2ccc(-c3ccccc3)cc2)NC(=O)[C@H](C(C)C)NC(=O)[C@H](Cc2cccc(C)c2)NC(=O)[C@H](CC(=O)O)NC(=O)[C@H](Cc2ccc(C(=O)O)cc2)NC(=O)[C@H](Cc2ccncc2)NC(=O)CSC[C@@H](C(=O)NCCOCCOCC(=O)NCCCCCCCCCCC(=O)O)NC(=O)[C@H]([C@@H](C)O)NC(=O)[C@H](C(C)C)NC(=O)[C@H](CC2CCCCC2)NC(=O)[C@H](CCN)NC(=O)[C@@H](CC(C)C)NC(=O)[C@H](CCCN)NC1=O` [Compound 1182], the concentration for half-maximal inhibition (IC50) came out at 0.0437 µM.

Values taken from patent publication US20260022142A1, “MACROCYCLIC IMMUNOMODULATORS” (Bristol-Myers Squibb Company, priority 2022, published 2026).
